Experimental data as given in ChEMBL document CHEMBL1201862, “PubChem BioAssay data set” (2004).
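Values below derive from 48-hour exposures of cells grown in 96-well plates, with endpoints linearly interpolated between the two concentrations bracketing the appropriate inhibition level. At the GI50, growth is halved.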 Activity calls are given as the source filed them. Rule as the data show it: active = GI50 up to about 1.1 µM and inactive = higher.

What was measured:
Assay in all cases: NCI-60 cell line screen, 48 h
UACC-62 = tested on: UACC-62
SK-MEL-28 = tested on: SK-MEL-28
HCT-116 = tested on: HCT-116
MCF7 = tested on: MCF7
SN12C = tested on: SN12C
SW-620 = tested on: SW-620
M14 = tested on: M14
Malme-3M = tested on: Malme-3M
SF-295 = tested on: SF-295
MDA-MB-231 = tested on: MDA-MB-231
SF-539 = tested on: SF-539
OVCAR-3 = tested on: OVCAR-3
RPMI-8226 = tested on: RPMI-8226
HT-29 = tested on: HT-29
NCI-H23 = tested on: NCI-H23
NCI-H522 = tested on: NCI-H522
OVCAR-4 = tested on: OVCAR-4
U-251 = tested on: U-251
PC-3 = tested on: PC-3
SK-OV-3 = tested on: SK-OV-3

Compound	GI50 (UACC-62)	GI50 (SK-MEL-28)	GI50 (HCT-116)	GI50 (MCF7)	GI50 (SN12C)	GI50 (SW-620)	GI50 (M14)	GI50 (Malme-3M)	GI50 (SF-295)	GI50 (MDA-MB-231)	GI50 (SF-539)	GI50 (OVCAR-3)	GI50 (RPMI-8226)	GI50 (HT-29)	GI50 (NCI-H23)	GI50 (NCI-H522)	GI50 (OVCAR-4)	GI50 (U-251)	GI50 (PC-3)	GI50 (SK-OV-3)
Brc1ccccc1/C=N\C12CC3CC(CC(C3)C1)C2	12 µM (inactive)	> 100 µM (inactive)	1.85 µM (inactive)	7.24 µM (inactive)	> 63.1 µM (inactive)	3.9 µM (inactive)	28.1 µM (inactive)	> 67.9 µM (inactive)	63.8 µM (inactive)	> 100 µM (inactive)	15.5 µM (inactive)	23.8 µM (inactive)	3.31 µM (inactive)	38.4 µM (inactive)	> 65 µM (inactive)	> 100 µM (inactive)	> 100 µM (inactive)	12.9 µM (inactive)	43.2 µM (inactive)	> 100 µM (inactive)
O=C(CCNC(=O)OCc1ccccc1)OCCCNC(=O)OCc1ccccc1	> 100 µM (inactive)	> 100 µM (inactive)	> 100 µM (inactive)	> 100 µM (inactive)	> 100 µM (inactive)	> 100 µM (inactive)	> 100 µM (inactive)	> 100 µM (inactive)	> 100 µM (inactive)	> 100 µM (inactive)	> 100 µM (inactive)	> 100 µM (inactive)	> 100 µM (inactive)	> 100 µM (inactive)	> 100 µM (inactive)	> 100 µM (inactive)	> 100 µM (inactive)	> 100 µM (inactive)	> 100 µM (inactive)	> 100 µM (inactive)
O=c1c(C(c2ccc(OCc3ccccc3)cc2)c2c(O)oc3ccccc3c2=O)c(O)oc2ccccc12	37.5 µM (inactive)	78 µM (inactive)	36.8 µM (inactive)	48.4 µM (inactive)	30.4 µM (inactive)	57.4 µM (inactive)	48.1 µM (inactive)	28.6 µM (inactive)	61.2 µM (inactive)	27 µM (inactive)	39.6 µM (inactive)	63.8 µM (inactive)	43.1 µM (inactive)	33 µM (inactive)	35.7 µM (inactive)	27.2 µM (inactive)	46.1 µM (inactive)	39.5 µM (inactive)	39.7 µM (inactive)	50.5 µM (inactive)
C=C1CC(Cn2cc(Br)c(=O)[nH]c2=O)(c2ccc(Br)cc2)OC1=O (stereo not given)	2.4 µM (inactive)	7.19 µM (inactive)	1.36 µM (inactive)	2.61 µM (inactive)	6.81 µM (inactive)	1.49 µM (inactive)	1.59 µM (inactive)	1.87 µM (inactive)	12.1 µM (inactive)	4.47 µM (inactive)	6.44 µM (inactive)	3.34 µM (inactive)	0.331 µM (active)	2.3 µM (inactive)	3.81 µM (inactive)	1.6 µM (inactive)	1.85 µM (inactive)	13.3 µM (inactive)	3.56 µM (inactive)	12.2 µM (inactive)
CCOP(=O)(OCC)/C(C#N)=C/c1[nH]cnc1C	> 100 µM (inactive)	> 100 µM (inactive)	> 100 µM (inactive)	> 100 µM (inactive)	> 100 µM (inactive)	> 100 µM (inactive)	> 100 µM (inactive)	> 100 µM (inactive)	> 100 µM (inactive)	> 100 µM (inactive)	49.5 µM (inactive)	> 100 µM (inactive)	> 100 µM (inactive)	> 100 µM (inactive)	> 100 µM (inactive)	> 100 µM (inactive)	> 100 µM (inactive)	> 100 µM (inactive)	> 100 µM (inactive)	> 100 µM (inactive)
C[C@]12OC[C@H](c3ccccc3)N1C(=O)C1[C@H]2CC12SCCS2 (stereo not given in full)	> 100 µM (inactive)	> 100 µM (inactive)	> 100 µM (inactive)	> 100 µM (inactive)	> 100 µM (inactive)	> 100 µM (inactive)	> 100 µM (inactive)	> 100 µM (inactive)	> 100 µM (inactive)	> 100 µM (inactive)	> 100 µM (inactive)	> 100 µM (inactive)	> 100 µM (inactive)	> 100 µM (inactive)	> 100 µM (inactive)	> 100 µM (inactive)	> 100 µM (inactive)	> 100 µM (inactive)	> 100 µM (inactive)	> 100 µM (inactive)
NC1CC(=O)c2c(I)sc(I)c21 (stereo not given)	16.7 µM (inactive)	21.4 µM (inactive)	12.4 µM (inactive)	25.4 µM (inactive)	27.3 µM (inactive)	11.6 µM (inactive)	27.2 µM (inactive)	13.7 µM (inactive)	21 µM (inactive)	20 µM (inactive)	8.89 µM (inactive)	20 µM (inactive)	4.41 µM (inactive)	20.2 µM (inactive)	17.1 µM (inactive)	7.69 µM (inactive)	20.1 µM (inactive)	9.79 µM (inactive)	18.7 µM (inactive)	44.5 µM (inactive)
CC(=O)c1c(-c2ccccc2)c(-c2ccc(OCCN(C)C)cc2)n2ccccc12	15.7 µM (inactive)	15.2 µM (inactive)	13.3 µM (inactive)	18 µM (inactive)	16 µM (inactive)	17.9 µM (inactive)	16.7 µM (inactive)	11.9 µM (inactive)	17.2 µM (inactive)	16.9 µM (inactive)	13.9 µM (inactive)	16.6 µM (inactive)	20.8 µM (inactive)	3.44 µM (inactive)	18.7 µM (inactive)	14.1 µM (inactive)	24.8 µM (inactive)	17 µM (inactive)	16.2 µM (inactive)	19.2 µM (inactive)
OCc1cccc(Nc2nc(O)c3[nH]cnc3n2)c1	> 100 µM (inactive)	> 100 µM (inactive)	> 100 µM (inactive)	> 100 µM (inactive)	> 100 µM (inactive)	> 100 µM (inactive)	> 100 µM (inactive)	> 100 µM (inactive)	> 100 µM (inactive)	> 100 µM (inactive)	> 100 µM (inactive)	> 100 µM (inactive)	> 100 µM (inactive)	> 100 µM (inactive)	> 100 µM (inactive)	> 100 µM (inactive)	> 100 µM (inactive)	> 100 µM (inactive)	> 100 µM (inactive)	> 100 µM (inactive)
CN(C)c1ccc(/C=c2\c3cc([N+](=O)[O-])ccc3n3c2cc(-c2ccccc2)[n+]3C)cc1	0.678 µM (active)	0.948 µM (active)	0.885 µM (active)	0.791 µM (active)	0.454 µM (active)	0.836 µM (active)	1 µM (active)	0.55 µM (active)	2.32 µM (inactive)	1.73 µM (inactive)	0.822 µM (active)	1.46 µM (inactive)	0.264 µM (active)	1.52 µM (inactive)	2.75 µM (inactive)	0.497 µM (active)	2.17 µM (inactive)	0.327 µM (active)	1.91 µM (inactive)	3.92 µM (inactive)
CSc1nc(C)cc(N(C)c2ccccc2)n1	35.3 µM (inactive)	46.8 µM (inactive)	22.9 µM (inactive)	24.9 µM (inactive)	41.8 µM (inactive)	54.5 µM (inactive)	30.1 µM (inactive)	63.7 µM (inactive)	34.7 µM (inactive)	34.8 µM (inactive)	28 µM (inactive)	27.3 µM (inactive)	> 100 µM (inactive)	15.1 µM (inactive)	27.9 µM (inactive)	65.6 µM (inactive)	> 100 µM (inactive)	31.4 µM (inactive)	55.5 µM (inactive)	37.6 µM (inactive)
O=C(Nc1cccc2cnccc12)c1cc2c(cc1Cl)Sc1nccn1S2(=O)=O	12.4 µM (inactive)	17.6 µM (inactive)	4.74 µM (inactive)	5.36 µM (inactive)	14.4 µM (inactive)	15.5 µM (inactive)	> 100 µM (inactive)	19.1 µM (inactive)	15.4 µM (inactive)	14.9 µM (inactive)	14.6 µM (inactive)	19.9 µM (inactive)	6.11 µM (inactive)	14.6 µM (inactive)	6.67 µM (inactive)	13.1 µM (inactive)	15.2 µM (inactive)	10.4 µM (inactive)	23.3 µM (inactive)	40 µM (inactive)
N#CC(c1ccccc1)N1CCCN(C(C#N)c2ccccc2)C1c1ccccc1O (stereo not given)	> 100 µM (inactive)	> 100 µM (inactive)	93.5 µM (inactive)	> 100 µM (inactive)	> 100 µM (inactive)	> 100 µM (inactive)	> 100 µM (inactive)	> 100 µM (inactive)	> 100 µM (inactive)	> 100 µM (inactive)	52.1 µM (inactive)	48.3 µM (inactive)	60.5 µM (inactive)	55.8 µM (inactive)	> 100 µM (inactive)	> 100 µM (inactive)	> 100 µM (inactive)	> 100 µM (inactive)	> 100 µM (inactive)	> 100 µM (inactive)
Clc1ccc(C2C3COc4ccccc4C3=NN2c2ccccc2)cc1 (stereo not given)	64.7 µM (inactive)	99.5 µM (inactive)	33.2 µM (inactive)	3.84 µM (inactive)	43.6 µM (inactive)	5.05 µM (inactive)	96.8 µM (inactive)	> 100 µM (inactive)	> 100 µM (inactive)	59.3 µM (inactive)	34.4 µM (inactive)	> 57.3 µM (inactive)	2.1 µM (inactive)	29.4 µM (inactive)	> 91.6 µM (inactive)	17.8 µM (inactive)	> 100 µM (inactive)	36.1 µM (inactive)	> 67.1 µM (inactive)	> 100 µM (inactive)
